Results: BindingDB's records for doi:10.1111/cbdd.12842 (Jagiellonian University Medical College, 2017)
Where a name gives a salt, the structure may show the parent alone.

What follows are compounds tested against T1, 5-hydroxytryptamine receptor 1A (Homo sapiens, UniProt P08908) (assay: Radioligand Binding Assay ([3H]-8-OH-DPAT)). Conditions: pH 7.4.
T1 sequence (P08908 whole entry): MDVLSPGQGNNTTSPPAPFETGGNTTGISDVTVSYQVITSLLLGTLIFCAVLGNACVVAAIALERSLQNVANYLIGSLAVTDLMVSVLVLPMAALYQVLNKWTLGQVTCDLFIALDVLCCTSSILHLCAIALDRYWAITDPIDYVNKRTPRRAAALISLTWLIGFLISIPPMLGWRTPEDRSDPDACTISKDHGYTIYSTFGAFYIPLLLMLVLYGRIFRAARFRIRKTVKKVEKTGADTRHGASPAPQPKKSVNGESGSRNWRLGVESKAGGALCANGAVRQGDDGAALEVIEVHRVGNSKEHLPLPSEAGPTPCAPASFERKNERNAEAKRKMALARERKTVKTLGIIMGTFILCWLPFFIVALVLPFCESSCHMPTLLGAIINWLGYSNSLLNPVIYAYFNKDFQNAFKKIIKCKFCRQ
Protocol: Binding experiments were conducted in 96-well microplates in a total volume of 250 μL of buffer (50 mM Tris-HCl pH 7.4, 10 mM MgCl2, 0.5 mM EDTA). Reaction mix included 50 μL solution of test compound, 50 μL of [3H]-8-OH-DPAT, and 150 μL of diluted membranes or the tissue suspension. Incubation condition: 60 min at 27 °C.

Compared with `CCC(O)CNCCOc1ccc2oc3ccccc3c(=O)c2c1` (stereo not drawn) [R,S-2-{2-[(2-hydroxybutyl)amino]ethoxy}-9H-xanthen-9-one hydrochloride (8a)], `CCC(CO)NCCOc1ccc2oc3ccccc3c(=O)c2c1` (stereo not drawn) [R,S-2-{2-[(1-hydroxybutan-2-yl]amino)ethoxy}-9H-xanthen-9-one (9)] is 2.1-fold higher in Ki: 320 nM for the first, 659 nM for the second. The first binds more tightly here.

For `CCC(CO)NCCCOc1ccc2oc3ccccc3c(=O)c2c1` (stereo not drawn) [R,S-2-{3-[(1-hydroxybutan-2-yl)amino]propoxy}-9H-xanthen-9-one (12)], the Ki was greater than 5000 nM.
